# How the values were obtained:
# Type in all cases: cell-based
# [1] = tested on: Candida guilliermondii (046); assay: L-proline-aminopeptidase activity on gelled medium, Example 6; settings: 0.3 g/l, 24 hours
# Procedure: (§1) A gelled medium comprising L-prolyl-9-(4-amino-phenyl)acridine (hereinafter referred to as L-Pro-4-APA) is prepared as follows: 45 g of Sabouraud agar are added to 1 liter of distilled water and then autoclaved. This reaction medium comprises 0.3 g/l of L-Pro-APA also introduced by means of a stock solution in DMSO.
# (§2) Microorganisms derived from the applicant's collection were seeded onto this medium, by delimitation as three dials, using a suspension of 0.5 McFarland. The dishes were incubated at 37° C. for 24 hours. The colonies formed were examined visually after incubation for 24 hours. The color of these colonies was noted before and after the addition of a drop of acetic acid, hereinafter referred to as GAA (glacial acetic acid).
# Candida krusei (026) = assay: as above; settings: 0.3 g/l, 24 hours
# Procedure: as §1, §2
# Candida lusitaniae (045) = assay: as above; settings: 0.3 g/l, 24 hours
# Procedure: as §1, §2
# Candida albicans (138) = assay: as above; settings: 0.3 g/l, 24 hours
# Procedure: as §1, §2
# Candida glabrata (051) = assay: as above; settings: 0.3 g/l, 24 hours
# Procedure: as §1, §2
# [2] = tested on: Candida parapsilosis (040); assay: as above; settings: 0.3 g/l, 24 hours
# Procedure: as §1, §2
# [3] = tested on: Klebsiella pneumoniae (023); assay: β-alanine-aminopeptidase activity on gelled medium, Example 5; settings: 0.3 g/l
# Procedure: (§3) A gelled medium comprising 300 mg/l of β-Ala-4-AP-10-MA is prepared as follows: 46.37 g of Columbia agar are added to 1 liter of distilled water and then autoclaved, and the substrate is then introduced by means of a stock solution in DMSO. Microorganisms derived from the applicant's collection were seeded onto the medium, by delimitation as three dials, using a suspension of 0.5 McFarland. The dishes were incubated at 37° C. for 48 hours. The colonies formed were examined visually after incubation for 24 and 48 hours. The color of these colonies and also the intensity of this color were noted.
# [4] = tested on: Burkholderia cepacia (004); assay: as above; settings: 0.3 g/l
# Procedure: as §3
# [5] = tested on: Pseudomonas aeruginosa (165); assay: as above; settings: 0.3 g/l
# Procedure: as §3
# Escherichia coli (032) = assay: as above; settings: 0.3 g/l
# Procedure: as §3
# [6] = tested on: Pseudomonas fluorescens (016); assay: as above; settings: 0.3 g/l
# Procedure: as §3
# Pseudomonas putida (028) = assay: as above; settings: 0.3 g/l
# Procedure: as §3
# [7] = tested on: Acinetobacter calcoaceticus (034); assay: as above; settings: 0.3 g/l
# Procedure: as §3
# [8] = tested on: Pseudomonas aeruginosa (052); assay: as above; settings: 0.3 g/l
# Procedure: as §3
# [9] = tested on: Pseudomonas stutzeri (073); assay: as above; settings: 0.3 g/l
# Procedure: as §3
smiles,measurement,setting,value
"O=C(Nc1ccc(-c2c3ccccc3nc3ccccc23)cc1)[C@@H]1CCCN1 [L-Pro-4-APA, L-Prolyl-9-(4-aminophenyl)acridine]",Color,[1]; after GAA,no growth
same,Color,[1]; before GAA,no growth
same,Color,Candida krusei (026); after GAA,yellow
same,Intensity,Candida krusei (026); after GAA,3
same,Color,Candida krusei (026); before GAA,yellow
same,Intensity,Candida krusei (026); before GAA,1
same,Color,Candida lusitaniae (045); after GAA,no growth
same,Color,Candida lusitaniae (045); before GAA,no growth
same,Color,Candida albicans (138); after GAA,yellow
same,Intensity,Candida albicans (138); after GAA,3
same,Color,Candida albicans (138); before GAA,yellow
same,Intensity,Candida albicans (138); before GAA,2
same,Color,Candida glabrata (051); after GAA,yellow
same,Intensity,Candida glabrata (051); after GAA,3
same,Color,Candida glabrata (051); before GAA,yellow
same,Intensity,Candida glabrata (051); before GAA,2
same,Color,[2]; after GAA,yellow
same,Intensity,[2]; after GAA,2
same,Color,[2]; before GAA,white
"C[n+]1c2ccccc2c(-c2ccc(NC(=O)CCN)cc2)c2ccccc21.[Cl-] [β-Ala-4-AP-10-MA, β-alanyl-9-(4-aminophenyl)-10-methylacridinium chloride]",Color,[3]; 24 H,colorless
same,Color,[3]; 48 h,colorless
same,Color,[4]; 24 H,colorless
same,Color,[4]; 48 h,colorless
same,Color,[5]; 24 H,orange
same,Intensity,[5]; 24 H,1.5
same,Color,[5]; 48 h,orange
same,Intensity,[5]; 48 h,3
same,Color,Escherichia coli (032); 24 H,colorless
same,Color,Escherichia coli (032); 48 h,colorless
same,Color,[6]; 24 H,inhibited
same,Color,[6]; 48 h,colorless
same,Color,Pseudomonas putida (028); 24 H,colorless
same,Color,Pseudomonas putida (028); 48 h,colorless
same,Color,[7]; 24 H,colorless
same,Color,[7]; 48 h,colorless
same,Color,[8]; 24 H,orange
same,Intensity,[8]; 24 H,2
same,Color,[8]; 48 h,orange
same,Intensity,[8]; 48 h,3
same,Color,[9]; 24 H,inhibited
same,Color,[9]; 48 h,colorless

# Source: patent US7223865B2, “Chromogenic compounds, and use thereof as enzyme substrates” (Biomerieux, priority 2003, dated 2007)
